Experimental data as given in US20050267051A1, “Antineoplastic and anti-HIV conjugates of steroid acid and nucleosides” (priority 2003, published 2005).
Converted amounts (≈) assume the structure as drawn. Where two headings read alike, the source gives them in different places.

Experiments:
MCF7 = test: Growth inhibition assay, MCF7; format: cell-based, human; settings: 10 μg/ml; MCF7 breast carcinoma
Source text: (§1) Cell growth inhibitory activity against human lymphoblasts (H9 cells) for compounds (4), (5) and (6) is depicted in FIG. 1. […] Conjugate (4) was further tested against ddC resistant H9 cells (H9/ddC cells that have reduced thymidine and deoxycytidine kinase activities); HL60, HL60/araC (human promyclocytic leukemic cell lines, parental and araC resistant), H29, H29/FU (human colon adenocarcinomas, parental and FU resistant), MCF7 (human breast carcinoma) and BL5 (Burkitt lymphoma cell line). At 10 μg/ml, it produced 85-100% growth inhibition in all of these human tumor cell lines.
(§2) Growth inhibition assays were performed in triplicate by seeding 5×10^4 Cells/ml in 24-well plates (Costar). Test compounds were added, and the trypan blue-excluding cells were counted after 72 hrs of incubation at 37° C. IC50 values were calculated from growth inhibition curves as described in Agarwal, R. P., and Mian, A. Biochem. Pharmacol. 1991, 42, 905 and Agarwal, Ram P., Han, Tieran, Fernandez, Manilyn. Biochemical and Biophysical Research com in un ica lions. 1999, 262, 657.

H9/ddC cells = test: Growth inhibition assay, ddC resistant H9 cells; format: cell-based, human; settings: 10 μg/ml
Source text: as §1, §2

H29/FU = test: Growth inhibition assay, H29/FU; format: cell-based, human; settings: 10 μg/ml, FU resistant
Source text: as §1, §2

HIV-1 = test: Anti-HIV assay with T4 lymphocytes (CEM-SS cell line), XTT, protection against HIV cytopathic effects; format: cell-based; settings: for Anti-HIV activity (in words): in vitro anti-HIV bioassays; for EC50: read-out: EC50 (50% effective concentration against HIV cytopathic effects)
Source text: (§3) The ester conjugates were subjected to standard in vitro anti-HIV bioassays [see: with T4 lymphocytes (CEM-SS cell line) according to the standard assays described, for example in Bourinbaiar AS, Lee-Huang S. Contraception 1995; 51:319-22 and http://www.iaen.org/files.cgi/7014_Bourinbaiar.pdf. Drug efficacy (EC50) was obtained by adding HIV and AZT conjugate to the cell to measure protection of the drug against HIV-induced celldeath. The cytotoxicity (IC50) data was obtained from adding only the conjugate to the cell to measure cell death caused by the agent. The therapeutic index (TI) is the ratio IC50/EC50. […] These two active agents appear to have less cytotoxicity and weaker anti-HIV potency than AZT. […] This intriguing profile of conjugate (4) prompted further evaluations of its growth inhibition in comparison to (5) and (6).
(§4) The anti-HIV assay was carried out with T4 lymphocytes (CEM-SS cell line) through the following standard procedure. Agent is dissolved in dimethyl sulfoxide and diluted 1:100 in cell culture medium before preparing serial half-log 10 dilutions. T4 lymphocytes are added and after a brief interval HIV-1 is added, resulting in a 1:200 final dilution of the compound. Uninfected cells with the compound serve as a toxicity control, and infected and uninfected cells without the compound serve basic controls. Cultures are incubated at 37° C. in a 5% carbon dioxide atmosphere for 6 days. The tetrazolium salt, XTT, is added to all wells, and the cultures are incubated to allow formazan color development. Individual wells are analyzed spectrophotometrically to quantitate formazan production, and in addition are viewed microscopically for detection of viable cells and confirmation of protective activity.
(§5) Drug-treated virus-infected cells are compared with drug-treated non-infected cells and with other appropriate controls (untreated infected and untreated non-infected cells, drug-containing wells without cells, etc.) on the same plate. Data are reviewed in comparison with other tests done at the same time and a determination concerning activity is made (Table 1).

H9 cells [1] = test: Growth inhibition (anti-growth) assay on H9 cells, trypan blue exclusion count; format: cell-based, human; settings: for IC50: Homo sapiens, H9
Source text: Anti-growth activity on H-9 cells is summarized by IC50 data (drug concentration measured by […]g/ml needed to inhibit 50% of the cell growth), derived from dose-response curves.
as §1, §2

H9 cells [2] = test: Apoptosis assay, Annexin V-FITC and propidium iodide staining, flow cytometry; format: cell-based, human; settings: 10 μg/ml, 48 hrs; FIG. 4
Protocol: In the experiments, fractions of cells in various stages of apoptotic death were assessed according to standard assays [see, e.g., http://www.blackwell-synergy.com/links/doi/10.1046/j.1365-2184.2003.00283.x/abs/; http://64.177.90.157/pfpc/Fluoride_Machalinski—2003.pdf and http://jpet.aspetjournals.org/cgi/content/full/310/1/126 by simultaneous Annexin V and propidium iodide staining using flow cytometry.
Apoptosis experiments were carried out by treating H9 Cells […] with compound 4 (10 μg/ml), AZT (10 μg/ml) or cholenic acid (10 μg/ml) for 48 hrs. Cells were collected by centrifugation, washed with growth medium, and stained with Annexin V-FITC and propidium iodide (apoptosis dilution kit; Sigma), according to the manufacturer's protocol, and the fluorescence was analyzed via flow cytometry.

HL60 = test: Growth inhibition assay, HL60; format: cell-based, human; settings: 10 μg/ml; HL60 promyelocytic leukemic, parental
Source text: as §1, §2

HL60/araC = test: Growth inhibition assay, HL60/araC; format: cell-based, human; settings: 10 μg/ml, araC resistant
Source text: as §1, §2

[3] = tested on: T4 lymphocytes (CEM-SS cell line); test: Cytotoxicity in uninfected CEM-SS cells (toxicity control of anti-HIV assay); format: cell-based
Source text: as §3, §4, §5

[4] = as above; format: cell-based; settings: human, uninfected CEM-SS cells (T4 lymphocytes); CEM-SS cell line, uninfected; average of two repeat experiments; read-out: IC50 (50% inhibitory concentration for cell growth), cytotoxicity
Source text: as §3, §4, §5

[5] = H-9 cells, derived from dose-response curves, read-out: IC50 (drug concentration needed to inhibit 50% of the cell growth), anti-growth activity on H-9 cells
[6] = FIG. 1, 72 hrs incubation, read-out: IC50, cell growth inhibitory activity against human lymphoblasts (H9 cells)

3′-Azido-3′-deoxythymidine-5′-[3β-acetyloxy-22,23-bisnor-5-cholenate] [compound 4]
growth inhibition (MCF7): 85-100% | growth inhibition (H9/ddC cells): 85-100% | growth inhibition (H29/FU): 85-100% | EC50 (50% effective concentration against HIV cytopathic effects) (HIV-1; CEM-SS cell line, average of two repeat experiments): inactive | Anti-HIV activity (in words) (HIV-1): no anti-HIV activity | cytotoxicity after 24 hrs drug exposure (H9 cells [1]; 5 μg/ml, 24 hrs exposure, FIG. 3): Substantially more cytotoxicity | cytotoxicity after 72 hrs drug exposure (H9 cells [1]; 5 μg/ml, 72 hrs exposure, FIG. 3): only gave a plateau | cell growth inhibition after 4 hrs drug exposure (H9 cells [1]; 1 or 5 μg/ml, 4 hrs exposure, FIG. 3): did not produce any inhibition | cell growth inhibition after 8 hrs drug exposure (H9 cells [1]; 1 or 5 μg/ml, 8 hrs incubation, FIG. 3): 20-25% | IC50, cell growth inhibitory activity against human lymphoblasts (H9 cells) (H9 cells [1]; FIG. 1, 72 hrs incubation): ~2.5 µg/mL | Inhibition of growth of H9 cells (in words) (H9 cells [1]; FIG. 2, 5 μg/ml for (4)): prevented growth of H9 cells almost completely | cells induced to apoptosis (H9 cells [2]): ~90% | growth inhibition (HL60): 85-100% | growth inhibition (HL60/araC): 85-100% | IC50 ([3]; CEM-SS cell line, uninfected, average of two repeat experiments, read-out: IC50 (50% inhibitory concentration for cell growth), cytotoxicity): 4.7 µM | Cytotoxicity (in words) ([3]; CEM-SS cells, conjugate only): high cytotoxicity

Cc1cn(C2C[C@H](N=[N+]=[N-])C(COC(=O)CCC(C)C3CCC4C5CCC6CCCCC6(C)C5CCC34C)O2)c(=O)[nH]c1=O (stereo partly shown) [A, 5-Cholanic acid, 5′-(3′-azido-3′-deoxythymidinyl) ester]
IC50 (H9 cells [1]; [5]): 30 µg/mL (≈ 49.2 µM)

Cc1cn(C2C[C@H](N=[N+]=[N-])C(COC(=O)CCC(C)C3CCC4C5C(=O)CC6CC(=O)CCC6(C)C5CC(=O)C34C)O2)c(=O)[nH]c1=O (stereo partly drawn) [B, 5β-Cholanic acid-3,7,12-trione, 5′-(3′-azido-3′-deoxythymidinyl) ester]
IC50 (H9 cells [1]; [5]): 30 µg/mL (≈ 46 µM)

CC(=O)O[C@@H]1CCC2(C)C(CCC3C2CCC2(C)C(C(C)CCC(=O)OCC4OC(n5cc(C)c(=O)[nH]c5=O)C[C@@H]4N=[N+]=[N-])CCC32)C1 (stereo partly drawn) [C, 3α-Acetyloxy-5[…]-Cholanic acid, 5′-(3′-azido-3′-deoxythymidinyl) ester]
IC50 (H9 cells [1]; [5]): 4 µg/mL (≈ 5.99 µM)

CC(=O)O[C@H]1CCC2(C)C(=CCC3C2CCC2(C)C(C(C)C(=O)OCC4C=CC(n5cc(C)c(=O)[nH]c5=O)O4)CCC32)C1 (stereo partly drawn) [D, 3β-Acetyloxy-23,24-bisnor-5-cholenic acid, 5′-(3′-deoxy-2′,3′-didehydrothymidinyl) ester]
IC50 (H9 cells [1]; [5]): 4 µg/mL (≈ 6.73 µM)

CC(=O)O[C@H]1CCC2(C)C(=CCC3C2CCC2(C)C(C(C)C(=O)OCC4CCC(n5cc(C)c(=O)[nH]c5=O)O4)CCC32)C1 (stereo partly drawn) [E, 3β-Acetyloxy-23,24-bisnor-5-cholenic acid, 5′-(3′-deoxythymidinyl) ester]
IC50 (H9 cells [1]; [5]): 3 µg/mL (≈ 5.03 µM)

COC(OC)C(=O)[C@H]1[C@H](C(=O)OC[C@H]2O[C@@H](n3cc(C)c(=O)[nH]c3=O)C[C@@H]2N=[N+]=[N-])C[C@H]2[C@@H]3CCC4=CC(=O)C=C[C@]4(C)[C@H]3[C@@H](O)C[C@@]21C [compound 5, 3′-Azido-3′-deoxythymidine-5′-[21,21-dimethoxy-3,20-dioxo-11β-hydroxy-1,4-pregnadiene-16α-carboxylate]]
EC50 (HIV-1; Human immunodeficiency virus 1, CEM-SS): 0.035 µM | Anti-HIV activity (in words) (HIV-1): active | IC50 (H9 cells [1]; [6]): ~12 µg/mL (≈ 17.6 µM)

Cc1cn(C2C[C@H](N=[N+]=[N-])C(COC(=O)[C@@H]3OC(C)(C)O[C@@]34CCC3C5CCC6=CC(=O)C=CC6(C)C5C(O)CC34C)O2)c(=O)[nH]c1=O (stereo partly drawn) [compound 6, 3′-Azido-3′-deoxythymidine-5′-[11β-hydroxy-17,20α-isopropylidenedioxy-3-oxo-1,4-pregnadiene-21-oate]]
EC50 (HIV-1; Human immunodeficiency virus 1, CEM-SS cell line, average of two repeat experiments): 0.065 µM | Anti-HIV activity (in words) (HIV-1): active | IC50 (H9 cells [1]; [6]): ~10 µg/mL (≈ 15 µM) | IC50 at 6 days [4]: 12 µM
